Test results: patent publication US12036226B2, “Methods of treating subjects having diabetes with chronic kidney disease” (Poxel SA, priority 2018, dated 2024)
Where “and” joins values, the source holds several entries; their conditions need not be identical. Identical values can stand only once. Like-named read-outs stand apart in the source and are kept apart here.

Test: Phase 1 study of pharmacokinetics and safety of imeglimin in subjects with renal impairment compared to normal renal function
Type: in vivo, human
Details: for AUC: read-out: AUC0-τ
Description: An open-label, parallel-group, multi-center, multiple oral dose study to investigate the pharmacokinetics of imeglimin in subjects with renal impairment compared to subjects with normal renal function was completed.
In this study, a total of 51 subjects received imeglimin at the daily dose of 1000 mg, administered either as 1000 mg QD (once a day) or 500 mg bid (twice a day) during 8 days. […] Twenty-four control subjects with normal renal function were matched to mild and moderate (10 receiving QD and 8 receiving bid regimen) and to severe (6 receiving bid regimen) renal impaired subjects. Measurement of the urine to plasma ratio of creatinine using 24 hours urine sampling was calculated (CLCrea).
Imeglimin was administered in the morning time during 8 consecutive days in the group of subjects receiving 1000 mg once a day and in the morning and evening time during 7 consecutive days followed by a morning administration of 500 mg in the morning time on Day 8 in the group of subjects receiving 500 mg twice a day. Morning administrations on Days 1 and 8 were performed on a fasted state, after a 10 hours overnight fasting and during 4 hours after imeglimin administration.
Inclusion Criteria: For subjects with normal renal functions: CLCrea>80 mL/min based on calculation using 24-hrs sampling on day −2. For subjects with impaired renal function: CLCrea 50 to 80 mL/min for subjects with mild renal impairment, 30 to <50 mL/min for subjects with moderate renal impairment, and <30 mL/min for subjects with severe renal impairment based on calculation using 24-hrs sampling on day −2.
Pharmacokinetic parameters included apparent volume of distribution during the terminal phase following extravascular administration (Vz/F), area under the curve of the plasma concentration as a function of time (AUC0-t), the maximum observed concentration (Cmax), the time to maximum concentration (tmax), the plasma half-life (t1/2), the total body clearance of drug from plasma following extravascular administration (CL/F), and other parameters.
The urinary excretion parameters of imeglimin in subjects with differing degrees of renal impairment following QD or bid oral doses of imeglimin on day 8 are summarized in Table 3 and Table 4. Parameters measured include amount of unchanged drug excreted in urine as a function of time (Ae0-t), renal clearance (CLR), and the amount of unchanged drug excreted in urine during one dosing interval (Ae0-τ), and the percentage of administered dose excreted in urine during one dosing interval (fe0-τ).
For the evaluation of safety and tolerability of multiple oral doses of 1000 mg imeglimin QD (i.e. a total dose of 8000 mg imeglimin) or 500 mg imeglimin BID (i.e. a total dose of 7500 mg imeglimin), laboratory tests (hematology, clinical chemistry, urinalysis), determination of vital signs, ECG recordings, questioning of AEs and physical examinations were performed. […] The incidence of AEs observed within the course of the study was low. Overall 31 out of 51 subjects reported 54 treatment emergent AEs. Of these, only 15 were judged as likely related to the study drug. The majority (39 AEs) were assessed as unlikely related. Based on these low incidence no clear differences between the dose regimens and between the renal impairment groups can be shown.

[1] = 500 mg bid oral, Day 8, CKD Stage 2 (mild renal impairment) (N = 4), geometric mean (CV %)
[2] = 500 mg bid oral, Day 8, CKD Stage 3 (moderate renal impairment) (N = 6), geometric mean (CV %)
[3] = 500 mg bid oral, Day 8, CKD Stage 4 (severe renal impairment) (N = 5), geometric mean (CV %)
[4] = 500 mg bid oral, Day 8, Part 1 CKD Stage 2 (mild renal impairment; N = 4), geometric mean
[5] = 500 mg bid oral, Day 8, Part 1 CKD Stage 3 (moderate renal impairment; N = 6), geometric mean
[6] = 500 mg bid oral, Day 8, Part 1 normal renal function (N = 8), geometric mean
[7] = 500 mg bid oral, Day 8, Part 2 CKD Stage 4 (severe renal impairment; N = 5), geometric mean
[8] = 500 mg bid oral, Day 8, Part 2 normal renal function (N = 6), geometric mean
[9] = 500 mg bid oral, Day 8, normal renal function (N = 6), geometric mean (CV %)
[10] = 500 mg bid oral, Day 8, normal renal function (N = 8), geometric mean (CV %)
[11] = 1000 mg QD or 500 mg bid over 8 days, all groups
[12] = 1000 mg QD oral, Day 8, CKD Stage 3 (moderate renal impairment) (N = 6), geometric mean
[13] = 1000 mg QD oral, Day 8, CKD stage 2 (mild renal impairment; N = 5), geometric mean
[14] = 1000 mg QD oral, Day 8, normal renal function (N = 10), geometric mean
[15] = human, plasma, po, 500 mg, 500 mg bid oral, Day 8, Part 1 CKD Stage 2 (mild renal impairment; N = 4), geometric mean
[16] = human, plasma, po, 500 mg, 500 mg bid oral, Day 8, Part 1 CKD Stage 3 (moderate renal impairment; N = 6), geometric mean

C[C@H]1N=C(N(C)C)N=C(N)N1 [imeglimin, (6R)—N^2, N^2,6-trimethyl-3,6-dihydro-1,3,5-triazine-2,4-diamine]
Ae0-t [1]: 404 (16.4) mg | Ae0-τ [1]: 215 (11.5) mg | feτ (fraction of dose excreted in urine, 12-hour dosing interval) [1]: 43% and 42.9 (11.5) % | Ae0-t [2]: 328 (22.6) mg | Ae0-τ [2]: 199 (29.1) mg | feτ (fraction of dose excreted in urine, 12-hour dosing interval) [2]: 40% and 39.8 (29.1) % | Ae0-t [3]: 357 (25.5) mg | Ae0-τ [3]: 209 (15.6) mg | feτ (fraction of dose excreted in urine, 12-hour dosing interval) [3]: 42% and 41.8 (15.6) % | CL/F [4]: 754 mL/min | Cpre [4]: 572 ng/mL | CL/F [5]: 485 mL/min | Cmin [5]: 808 ng/mL | Cpre [5]: 996 ng/mL | CL/F [6]: 1128 mL/min | Cpre [6]: 254 ng/mL | CL/F [7]: 336 mL/min | Cmin [7]: 1211 ng/mL | Cpre [7]: 1335 ng/mL | CL/F [8]: 1195 mL/min | Cmin [8]: 169 ng/mL | Cpre [8]: 209 ng/mL | Ae0-t [9]: 298 (30.6) mg | Ae0-τ [9]: 229 (25.3) mg | feτ (fraction of dose excreted in urine, 12-hour dosing interval) [9]: 45.9 (25.3) % | Ae0-t [10]: 307 (37.7) mg | Ae0-τ [10]: 222 (22.6) mg | feτ (fraction of dose excreted in urine, 12-hour dosing interval) [10]: 44.4 (22.6) % | number of treatment emergent AEs [11]: 54 | subjects reporting treatment emergent AEs [11]: 31 out of 51 subjects | Ae0-t (unchanged drug excreted in urine) [12]: 453 mg | Ae0-τ [12]: 345 mg | CL/F [12]: 573 mL/min | Cpre [12]: 382 ng/mL | feτ (percentage of dose excreted in urine during one dosing interval) [12]: 34.5% | CL/F [13]: 828 mL/min | Cpre [13]: 181 ng/mL | Ae0-t (unchanged drug excreted in urine) [14]: 460 mg | Ae0-τ [14]: 386 mg | CL/F [14]: 1082 mL/min | Cav [14]: 642 ng/mL | Cpre [14]: 136 ng/mL | feτ (percentage of dose excreted in urine during one dosing interval) [14]: 38.6% | QRS-, QT intervals and corrected QTc-intervals (Bazett, Fridericia) (ECG recordings): did not reveal any relevant changes | vital signs (following the administration of imeglimin): did not show any clinically relevant changes | clinical laboratory parameters (human, in vivo): no significant abnormality observed | half-life (human, plasma, oral, across groups): 13 to 26 h | Tmax (human, plasma, oral, post-dose, across renal function groups and time, read-out: Median Tmax): 3.5 to 5 h | Cmax [15]: 1320 ng/mL | half-life [15]: 26.1 h | AUC [15]: 11100 ng·h/mL | concentration at 8 day (human, plasma, po, 500 mg, 500 mg bid oral, Day 8, Part 1 CKD Stage 2 (mild renal impairment; N = 4), geometric mean, read-out: Cav): 921 ng/mL | concentration at 8 day (human, plasma, po, 500 mg, 500 mg bid oral, Day 8, Part 1 CKD Stage 2 (mild renal impairment; N = 4), geometric mean, read-out: Cmin): 459 ng/mL | Vd/F (human, plasma, po, 500 mg, 500 mg bid oral, Day 8, Part 1 CKD Stage 2 (mild renal impairment; N = 4), geometric mean, read-out: Vz/F): 1700 L | Tmax (human, plasma, po, 500 mg, 500 mg bid oral, Day 8, Part 1 CKD Stage 2 (mild renal impairment; N = 4), median, read-out: tmax): 4 h | Cmax [16]: 2000 ng/mL | half-life [16]: 21.9 h | AUC [16]: 17200 ng·h/mL
